Consider nine compounds from PMC2045123 (Analytical and Bioanalytical Chemistry, 2007).

Test [1] addresses T1, human androgen receptor (Homo sapiens, UniProt P10275).
T1 sequence (P10275 1-920): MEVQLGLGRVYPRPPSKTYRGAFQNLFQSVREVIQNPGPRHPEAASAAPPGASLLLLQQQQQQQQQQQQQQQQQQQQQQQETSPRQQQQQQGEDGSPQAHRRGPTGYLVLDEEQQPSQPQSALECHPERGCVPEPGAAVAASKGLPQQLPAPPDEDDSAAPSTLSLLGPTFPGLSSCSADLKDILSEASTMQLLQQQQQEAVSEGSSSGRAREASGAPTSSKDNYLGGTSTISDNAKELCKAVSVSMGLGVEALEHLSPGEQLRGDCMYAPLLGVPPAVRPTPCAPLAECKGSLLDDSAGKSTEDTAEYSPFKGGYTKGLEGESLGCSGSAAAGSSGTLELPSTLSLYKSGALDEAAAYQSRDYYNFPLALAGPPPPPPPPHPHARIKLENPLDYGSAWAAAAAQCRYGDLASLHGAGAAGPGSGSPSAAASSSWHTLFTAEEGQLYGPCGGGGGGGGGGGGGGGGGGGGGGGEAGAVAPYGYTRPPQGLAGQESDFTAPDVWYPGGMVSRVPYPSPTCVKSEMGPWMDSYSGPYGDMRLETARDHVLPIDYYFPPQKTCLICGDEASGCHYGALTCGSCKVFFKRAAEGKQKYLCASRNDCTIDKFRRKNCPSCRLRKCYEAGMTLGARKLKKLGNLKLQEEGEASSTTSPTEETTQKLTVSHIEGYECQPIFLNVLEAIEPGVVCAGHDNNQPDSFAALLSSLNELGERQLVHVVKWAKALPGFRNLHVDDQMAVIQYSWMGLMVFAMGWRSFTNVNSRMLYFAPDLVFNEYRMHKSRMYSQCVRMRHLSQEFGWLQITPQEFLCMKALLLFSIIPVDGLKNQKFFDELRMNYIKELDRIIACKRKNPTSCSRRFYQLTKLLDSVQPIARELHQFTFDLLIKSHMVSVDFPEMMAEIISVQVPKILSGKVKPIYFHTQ
As to the kind of experiment: new yeast androgen bioassay expressing yEGFP in response to androgens. It counts as cell-based.

For another test, the system named is AR. To be noted: cited from earlier work.
Another test has as its target T2, hAR (Homo sapiens, UniProt P10275).
T2 sequence (P10275 1-920): T1 sequence (P10275 1-920)
The experiment in a line: lacZ-based. It counts as cell-based.

Test [2] addresses T1, human androgen receptor. It counts as cell-based. To be noted: coexposure with 50 nM 5α-dihydrotestosterone; potency compared with flutamide.
Where [3] appears, read: β-galactosidase bioassay, relative to 17β-testosterone, NR no response.

The structures appear in SMILES notation. “Also recorded” adds a separate entry of the source. Read-outs that look alike come from different tables or passages of the source.

As for `C[C@]12CC[C@@H]3c4ccc(O)cc4CC[C@H]3[C@@H]1CCC2=O` [Estrone], the “agonistic response (in words)” value on human androgen receptor [1] is “no agonistic response; also recorded: negative result”.

As to `CC(=O)[C@H]1CC[C@H]2[C@@H]3CCC4=CC(=O)CC[C@]4(C)[C@H]3CC[C@]12C` [Progesterone], in the test with AR, the “androgenic activity in MCRG systems (positive systems out of all)” value (“androgenic activity in MCRG systems” for short) was “seven out of nine”.

In turn, `C[C@]1(O)CC[C@H]2[C@@H]3CCC4=CC(=O)CCC4=C3C=C[C@@]21C` [Methyltrienolone] yielded an RAP at hAR of 3.1.

For `Brc1ccc(Oc2cc(Br)cc(Br)c2)cc1` [BDE-39], at human androgen receptor [2], the “antiandrogenic activity (in words)” value is on record as “clearly less antiandrogenic”. The “agonistic response (in words)” value at human androgen receptor [1] was “None of these four compounds were able to show an agonistic response”.

Regarding `C[C@]12CC[C@@H]3c4ccc(O)cc4CC[C@H]3[C@@H]1CC[C@@H]2O` [17β-Estradiol], in the test with AR, the “androgenic activity in MCRG systems” value is on record as “ten out of 11”.

The compound `C[C@]12C=CC3=C4CCC(=O)C=C4CC[C@H]3[C@@H]1CC[C@@H]2O` [17β-Trenbolone] registered a concentration giving a half-maximal response (EC50) on hAR of 13 nM. Also, at hAR (setting [3]), the RAP amounted to 0.9.

For the compound `C[C@]12CC[C@H]3[C@@H](CCC4=CC(=O)C=C[C@@]43C)[C@@H]1CC[C@@H]2O` [17β-Boldenone], at hAR (setting [3]), the RAP was 0.2.

For `CC[C@]1(O)CC[C@H]2[C@@H]3CCC4=CC(=O)CCC4=C3C=C[C@@]21CC` [Tetrahydrogestrinone], on hAR (setting [3]), the RAP was 1.0.

Regarding `C[C@@H]1C[C@H]2[C@@H]3CCC4=CC(=O)C=C[C@]4(C)[C@@]3(F)[C@@H](O)C[C@]2(C)[C@@]1(O)C(=O)CO` [Dexamethasone], the “androgenic activity in MCRG systems” value in the test on AR was “three out of four”.

In general, EC50 refers to the concentration that produces a half-maximal response. Low readings indicate greater potency, high ones weaker potency.
